Ten compounds from patent US20100120039A1, “METHODS AND COMPOSITIONS IN BREAST CANCER THERAPY RESISTANCE” (priority 2008, published 2010) can be followed below.

Several values for one entry are separate records, joined by “and”; a condition that tells them apart may be missing. Equal values may be shown once. Entries after “also recorded” stand apart in the source; their conditions may differ. A value given as a limit tells only on which side of the number the result lay.

The subject of test [1] is MCF-7 K303R ERα-overexpressing cells. The experiment in a line: Anchorage-independent soft agar growth assay. The class given is cell-based, human. The settings on record: for reduction in colonies: Tam 100 nM.
Test [2] has as its system MCF-7 Arom 1 cells. The experiment in a line: Anchorage-independent soft agar growth assay. The class given is cell-based, human. The following applies: for colony growth: ICI 182,780 1 μM.
Test [3] deals with K303R Arom 1 and Arom 2 cells. Briefly: Anchorage-independent soft agar growth assay. The class given is cell-based, human. The settings on record: for AD-induced colony formation: AD 10 nmol/L + Ana 1 μmol/L, 14 days; for colony growth: ICI 182,780 1 μM.
Test [4] concerns pAkt in K303R Arom 1 and 2 cells. Briefly: Immunoblot of phosphorylated Akt. The class given is cell-based, human. The settings on record: for basal Akt phosphorylation: LY 10 μmol/L, PI-103 1 μmol/L, Akti1/2 1 μmol/L, 30 min. A general note: Immunoblotting shows a protein as a band on a membrane.
In test [5] the test system is PARP cleavage in MCF-7 Arom 1 cells. Briefly: Immunoblot of PARP proteolysis. The class given is cell-based, human. The following applies: AD 10 nmol/L + Ana 1 μmol/L, 24 h.
Test [6] relates to PARP cleavage in K303R Arom 1 cells. The experiment in a line: Immunoblot of PARP proteolysis. The class given is cell-based, human. The settings on record: AD 10 nmol/L + Ana 1 μmol/L, 24 h.
Test [7] deals with T1, aromatase (Homo sapiens, UniProt P11511).
T1 construct: Full-length human aromatase cDNA was amplified from the pCMV6-Arom plasmid; expressed in transfected cells; host or cells: MCF-7 parental and YFP-K303R ERα MCF-7 clones, stably transfected with pZeo-Arom
T1 sequence (P11511 1-503): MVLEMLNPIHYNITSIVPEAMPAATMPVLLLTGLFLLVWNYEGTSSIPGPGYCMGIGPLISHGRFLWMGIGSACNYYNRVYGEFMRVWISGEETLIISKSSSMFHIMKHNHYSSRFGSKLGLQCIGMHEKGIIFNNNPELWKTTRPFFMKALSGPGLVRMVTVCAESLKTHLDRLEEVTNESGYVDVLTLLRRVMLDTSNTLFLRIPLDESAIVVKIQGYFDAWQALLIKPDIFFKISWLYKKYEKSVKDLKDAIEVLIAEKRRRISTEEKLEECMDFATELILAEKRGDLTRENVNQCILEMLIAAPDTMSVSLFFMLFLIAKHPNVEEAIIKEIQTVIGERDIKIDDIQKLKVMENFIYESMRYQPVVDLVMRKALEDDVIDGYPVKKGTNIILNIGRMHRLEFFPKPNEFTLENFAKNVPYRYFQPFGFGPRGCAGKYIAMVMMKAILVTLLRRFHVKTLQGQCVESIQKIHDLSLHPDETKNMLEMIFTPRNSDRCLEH
The experiment in a line: Aromatase activity assay (3H-water release). The following applies: both cells (MCF-7 and MCF-7-K303R aromatase transfectants). The class given is biochemical.

In test [8] the test system is K303R ERα-Arom pools (MCF-7). Briefly: Soft agar assay in stable pools. The class given is cell-based, human. The following applies: AD 10 nmol/L + Ana 1 μmol/L.
Test [9] concerns K303R Arom 1 cells. Briefly: ELISA cell death detection assay. The class given is cell-based, human.
The subject of test [10] is MCF-7 Arom 1 cells. Briefly: ELISA cell death detection assay. The class given is cell-based, human.
Test [11] has as its system pAkt in MCF-7 Arom 1 cells. Briefly: Immunoblot of phosphorylated Akt. The class given is cell-based, human.
For test [12], the system named is CHO K303R P cells. The experiment in a line: Soft agar assay in stable pools. The settings on record: AD 10 nmol/L + Ana 1 μmol/L. The class given is cell-based, Chinese hamster.
Test [13] has as its system K303R Arom 1 cells. The experiment in a line: MTT growth assay. The class given is cell-based, human. The settings on record: AD 10 nM + Ana, 9 days, K303R mutant cells. Background: Formazan colour is commonly taken as a measure of viable cells.
In test [14] the test system is MCF-7 Arom 1 cells. Briefly: MTT growth assay. The following applies: AD 10 nM + Ana, 9 days, WT ERα cells. The class given is cell-based, human.
Test [15] has as its system K303R ERα ERE-luciferase reporter. Briefly: ERα transactivation assay (ERE-luciferase) in CHO cells. The class given is cell-based, Chinese hamster. The settings on record: LY 10 μmol/L or ICI 1 μmol/L.
Test [16] concerns MCF-7 WT cells. Briefly: Anchorage-independent soft agar growth assay. The class given is cell-based, human. The settings on record: Tam 100 nM, 14 days.
Test [17] relates to MCF-7 K303R ERα-expressing cells. Briefly: MTT growth assay with growth factors. The class given is cell-based, human.
The subject of test [18] is MCF-7 WT ERα-expressing cells. The experiment in a line: MTT growth assay with growth factors. The class given is cell-based, human. The settings on record: Tam alone.
The subject of test [19] is AP-1 activity in MCF-7 K303R cells. The experiment in a line: AP-1 luciferase reporter assay. The class given is cell-based, human. (In a reporter assay the amount or activity of a reporter protein is the signal.)
The subject of test [20] is phosphorylated HER2, Akt, MAPK in MCF-7 WT cells. Briefly: Immunoblot after S305 blocking peptide delivery and heregulin. The class given is cell-based, human. The following applies: peptide 4 μg/well 4 h, heregulin 10 min.
The subject of test [21] is phosphorylated S305 ERα, HER2, Akt, MAPK in MCF-7 K303R cells. Described as above. The class given is cell-based, human. The following applies: peptide 4 μg/well 4 h, heregulin 10 min.
[22] abbreviates: AD 10 nmol/L + Ana 1 μmol/L versus AD.

As for 17β-Estradiol [E2], the “soft agar growth at lowest E2 concentration” value in [1] (E2 10^−12, 14 days, p=0.005) was “significantly enhance”.
In the case of `O=c1[nH]c2ccccc2n1C1CCN(Cc2ccc(-c3nc4cc5nc[nH]c5cc4nc3-c3ccccc3)cc2)CC1` [Akti1/2, Akt inhibitor VIII isozyme-selective], the “inhibition of basal, AD-stimulated and Ana-stimulated growth” value in test [2] (Akti1/2 1 μmol/L) is roughly 30%. For the same compound, the inhibition of growth (in general, the percentage by which the read-out fell short of the control) in [3] (Akti1/2 1 μmol/L) was greater than 90%. Moreover, in test [4], the “basal Akt phosphorylation” value was “effectively blocked”.
`CC(C)(C#N)c1cc(Cn2cncn2)cc(C(C)(C)C#N)c1` [Ana, anastrozole]: the “PARP proteolysis compared with AD treatment” value in test [5] was “increased proteolysis”. Besides, the PARP cleavage entry in test [6] is “unchanged”. The AD-stimulated colony growth entry in [2] (AD 10 nmol/L + Ana 1 μmol/L, 14 days) was “completely abrogated”. The results for the AD-induced colony formation result in test [3] and in [3] (listed as AN) were “did not inhibit; also recorded: unable to inhibit” and “unable to inhibit”, respectively. The “reduction of aromatase activity” value in test [7] came out at 95%. In addition, the results for the AD-stimulated growth result in [8] and in test [12] were “unable to reduce; also recorded: further stimulated” and “did not reverse”, respectively. Moreover, in test [9] (setting [22]), the apoptotic response entry is “no change”. For the same compound, the cell apoptosis entry in test [10] (setting [22]) was “significant increase”. Further, the “AD-induced pAkt levels” value in [11] (AD 10 nM + Ana 1 μM, 1 h) is reported as “reduced”. In addition, the “constitutive pAkt levels” value in test [4] (AD 10 nM + Ana 1 μM, 1 h) is recorded as “not affected; also recorded: unaffected”. In addition, in test [13], the “effect on AD-stimulated growth” value is “had no effect”. For the same compound, the “decrease of AD-stimulated growth” value in test [14] was 47% and ~40%; in test [14] (listed as AN) it was 40%.
Regarding `C[C@]12CC[C@@H]3c4ccc(O)cc4C[C@@H](CCCCCCCCC[S+]([O-])CCCC(F)(F)C(F)(F)F)[C@H]3[C@@H]1CC[C@@H]2O` (stereo partly shown) [ICI 182,780, fulvestrant], the colony growth entry is reported as “significantly suppressed” in test [2], “suppressed” in [2] (listed as ICI182,780), “significantly suppressed” in test [3] and “suppressed” in test [3] (listed as ICI182,780). For the same compound, in test [15], the ERE activity entry is on record as “inhibited”. The “basal pAkt” value in [11] (ICI182,780 1-48 h) is “not basal pAkt”. The “pAkt with short-term treatment” value in [4] (ICI 1 μmol/L, 1-30 min) is on record as “no changes”. Further, the pAkt levels result in test [4] (ICI 1-48 h) is recorded as “decrease”.
`O=c1cc(N2CCOCC2)oc2c(-c3ccccc3)cccc12` [LY294002]: the “increase in the apoptotic rate compared with AD” value in test [9] (LY 10 μmol/L, 72 h) was 3.6 fold. For the same compound, in test [10] (LY 10 μmol/L, 72 h), the apoptosis induction was 1.7 fold.
Consider `COc1cccc(-c2cc(=O)c3ccccc3o2)c1N` [PD98059], for which, in [3] (PD98059 10 μM), the “antiproliferative effects on basal growth” value is “not observed” and the “reversal of the AI^R phenotype” value is listed as “did not reverse”. The “reversal of the AI^R phenotype” value in [3] (PD98059 10 μM, listed as PD) is “unable to reverse”.
Consider `Oc1cccc(-c2nc(N3CCOCC3)c3oc4ncccc4c3n2)c1` [PI-103], for which the “basal Akt phosphorylation” value in [4] is “effectively blocked”.
With `CC/C(=C(\c1ccccc1)c1ccc(OCCN(C)C)cc1)c1ccccc1` [Tam, tamoxifen], the reduction in colonies came to 78% in [16] (estrogen (E2 1 nM)-stimulated); 96% in test [16] (heregulin (2 ng/ml)-stimulated); 54% in test [1] (estrogen (E2 1 nM)-stimulated, 14 days); 21% in test [1] (heregulin (2 ng/ml)-stimulated, 14 days). Further, the heregulin-induced anchorage-independent growth result in test [1] (Tam, 14 days) is on record as “unable to block; also recorded: failed to inhibit”. Besides, the growth result in test [17] (Tam alone, MTT) is “enhanced”. Besides, the “growth when stimulated with growth factors” value in test [17] (Tam with heregulin, EGF or IGF-1, MTT) is “super-agonist”. Further, in test [18], the control growth result was “inhibited”. The “growth factor-induced AP-1 activity” value in test [19] (presence of Tam) was “unable to reverse”.
In the case of “IKRSKKNSLALSC (blocking sequence) [S305 blocking peptide]”, the “heregulin-induced phosphorylation of downstream signaling molecules (HER2, Akt, MAPK)” value in [20] and in test [21] (more pronounced than in WT) was “abrogated; also recorded: inhibited” throughout. The “phosphorylation of the mutant receptor at S305” value in test [21] is on record as “abrogated”.
As to heregulin, in test [19] (only in mutant-expressing cells), the AP-1 activity result is “induced high AP-1 activity”.
